Data as given in US10538555B2, “Macrocyclic inhibitors of the PD-1/PD-L1 and CD80(B7-1)/PD-L1 protein/protein interactions” (BRISTOL-MYERS SQUIBB COMPANY, priority 2014, dated 2020).
pIC50: −log10 of the molar value. Like-named read-outs stand apart in the source and are kept apart here. *1 amine or outer side, *2 acyl side, *3 side chain or, on linkers, in order; H or OH if unused. Where a SMILES comes first, the peptide text is derived from it. Bridges are numbered along the chain shown (N, C = ends). [ ]: non-standard residue; d: D form. ξ: configuration not given here. Trp(1-CH2COOH) = N[C@@H](Cc1cn(CC(=O)O)c2ccccc12)C(=O)O; Trp(βS-Me) = C[C@@H](c1c[nH]c2ccccc12)[C@H](N)C(=O)O; Phe(3,4,5-F3) = N[C@@H](Cc1cc(F)c(F)c(F)c1)C(=O)O; d(cisHyp) = O=C(O)[C@H]1C[C@@H](O)CN1; Bta = N[C@@H](Cc1csc2ccccc12)C(=O)O; Hyp = O=C(O)[C@@H]1C[C@@H](O)CN1; NMeF = CN[C@@H](Cc1ccccc1)C(=O)O; X1 = O=C([C@H]1COCCN1[*:1])[*:2]; hPhe = N[C@@H](CCc1ccccc1)C(=O)O; NMeNle = CCCC[C@H](NC)C(=O)O; Pip = O=C(O)[C@@H]1CCCCN1; dPip = O=C(O)[C@H]1CCCCN1; hSer = N[C@@H](CCO)C(=O)O; NMeA = CN[C@@H](C)C(=O)O; Aze = O=C(O)[C@@H]1CCN1; Dab = NCC[C@H](N)C(=O)O; Dap = NC[C@H](N)C(=O)O; ξC = NC(CS)C(=O)O; Sar = CNCC(=O)O

Target: T1, Human PD-L1/PD-1 (Homo sapiens, UniProt Q9NZQ7)
T1 construct: TVMV protease cleavage site (C); made in house; host or cells: HEK293T cells
T1 sequence (Q9NZQ7 with tags, fused parts or gaps): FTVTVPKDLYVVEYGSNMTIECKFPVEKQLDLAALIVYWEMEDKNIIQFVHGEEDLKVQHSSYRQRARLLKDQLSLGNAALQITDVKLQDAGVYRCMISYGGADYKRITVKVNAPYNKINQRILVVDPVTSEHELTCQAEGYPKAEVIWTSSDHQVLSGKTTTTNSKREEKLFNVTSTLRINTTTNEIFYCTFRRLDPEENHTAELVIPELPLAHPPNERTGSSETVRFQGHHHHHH
Test: HTRF Human PD-L1/PD-1 binding assay (PD-1-Ig/PD-L1-His)
Conditions: PD-L1-His 10 nM, PD-1-Ig 20 nM
Procedure, shortened: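 Truncated Fc-fused human PD-1 (aa 25-167) at 20 nM and His-tagged PD-L1 (aa 18-239) at 10 nM final are used, with peptides preincubated 15 min with PD-L1. Detection uses europium-cryptate anti-Ig and APC anti-His antibodies; 665/620 nm ratio.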

[1] = class symbol, read-out: HTRF Human PD-L1/PD-1 Binding Assay IC50 Range
[2] = read-out: HTRF Human PD-L1/PD-1 Binding Assay IC50

Structure (SMILES)	pIC50 [1]	pIC50 [2]
CCCC[C@H]1C(=O)N(C)[C@@H](CCCC)C(=O)N[C@@H](CCCNC(=N)N)C(=O)N[C@H](C(=O)NCC(N)=O)CSCC(=O)N[C@@H](Cc2ccc(O)cc2)C(=O)N(C)[C@@H](C)C(=O)N[C@@H](CC(N)=O)C(=O)N2CCC[C@H]2C(=O)N[C@@H](CC(N)=O)C(=O)N[C@@H](CC(C)C)C(=O)N2C[C@H](O)C[C@H]2C(=O)N[C@@H]([C@@H](C)c2c[nH]c3ccccc23)C(=O)N[C@@H](CO)C(=O)N[C@@H](Cc2c[nH]c3ccccc23)C(=O)N1C [Example 10534] ({CH2CO}-Y[NMeA]NPNL[Hyp][Trp(βS-Me)]SW[NMeNle][NMeNle]RCG-NH2; thioether N-14)	8.00 to 9.00	
CCCC[C@H]1C(=O)N(C)[C@@H](CCCC)C(=O)N[C@@H](CCCNC(=N)N)C(=O)NC(C(=O)NCC(N)=O)CSCC(=O)N[C@@H](Cc2ccc(O)cc2)C(=O)N(C)[C@@H](C)C(=O)N[C@@H](CC(N)=O)C(=O)N2CCC[C@H]2C(=O)N[C@@H](CO)C(=O)N[C@@H](CO)C(=O)N2CCC[C@H]2C(=O)N[C@@H](Cc2c[nH]c3ccccc23)C(=O)N[C@@H](CO)C(=O)N[C@@H](Cc2c[nH]c3ccccc23)C(=O)N1C (stereo partly drawn) [Example 10017] ({CH2CO}-Y[NMeA]NPSSPWSW[NMeNle][NMeNle]R[ξC]G-NH2; thioether N-14)	7.00 to 8.00	
CCCC[C@H]1C(=O)N(C)[C@@H](CCCC)C(=O)N[C@@H](CC(C)C)C(=O)N[C@H](C(=O)NCC(N)=O)CSCC(=O)N[C@@H](Cc2ccc(O)cc2)C(=O)N(C)[C@@H](C)C(=O)N[C@@H](CC(=O)O)C(=O)N2CCC[C@H]2C(=O)N[C@@H](CN)C(=O)N[C@@H](CC(C)C)C(=O)N2C[C@H](O)C[C@H]2C(=O)N[C@@H](Cc2c[nH]c3ccccc23)C(=O)N[C@@H](CCN)C(=O)N[C@@H](Cc2cn(CC(=O)O)c3ccccc23)C(=O)N1C [Example 5171] ({CH2CO}-Y[NMeA]DP[Dap]L[Hyp]W[Dab][Trp(1-CH2COOH)][NMeNle][NMeNle]LCG-NH2; thioether N-14)	8.00 to 9.00	
CCCC[C@H]1C(=O)N(C)[C@@H](CCCC)C(=O)N[C@@H](CC(C)C)C(=O)N[C@H](C(=O)NCC(N)=O)CSCC(=O)N[C@@H](Cc2ccc(OC)cc2)C(=O)N(C)[C@@H](C)C(=O)N[C@@H](CC(N)=O)C(=O)N2CCC[C@H]2C(=O)N[C@@H](Cc2c[nH]cn2)C(=O)N[C@@H](CCC(N)=O)C(=O)N2C[C@H](O)C[C@H]2C(=O)N[C@@H](Cc2c[nH]c3ccccc23)C(=O)N[C@@H](CO)C(=O)N[C@@H](Cc2cn(CC(=O)O)c3ccccc23)C(=O)N1C [Example 7141] ({CH2CO}-Y(Me)[NMeA]NPHQ[Hyp]WS[Trp(1-CH2COOH)][NMeNle][NMeNle]LCG-NH2; thioether N-14)	8.00 to 9.00	
CCCC[C@H]1C(=O)N(C)[C@@H](CCCC)C(=O)N[C@@H](CCCNC(=N)N)C(=O)NC(C(=O)NCC(N)=O)CSCC(=O)N[C@@H](Cc2ccc(O)cc2)C(=O)N(C)[C@@H](C)C(=O)N[C@@H](CC(N)=O)C(=O)N2CCC[C@H]2C(=O)N[C@@H](CCO)C(=O)N[C@@H](CCO)C(=O)N2CCC[C@H]2C(=O)N[C@@H](Cc2c[nH]c3ccccc23)C(=O)N[C@@H](CO)C(=O)N[C@@H](Cc2csc3ccccc23)C(=O)N1C (stereo partly drawn) [Example 10019] ({CH2CO}-Y[NMeA]NP[hSer][hSer]PWS[Bta][NMeNle][NMeNle]R[ξC]G-NH2; thioether N-14)	7.00 to 8.00	
CCCC[C@H]1C(=O)N(C)[C@@H](CCCC)C(=O)N[C@@H](CCCNC(=N)N)C(=O)NC(C(=O)NCC(N)=O)CSCC(=O)N[C@@H](Cc2ccc(O)cc2)C(=O)N(C)[C@@H](C)C(=O)N[C@@H](CC(N)=O)C(=O)N2CCC[C@H]2C(=O)N[C@@H](CCO)C(=O)N[C@@H](CC(C)C)C(=O)N2CCC[C@H]2C(=O)N[C@@H](Cc2c[nH]c3ccccc23)C(=O)N[C@@H](CO)C(=O)N[C@@H](Cc2csc3ccccc23)C(=O)N1C (stereo partly drawn) [Example 9149] ({CH2CO}-Y[NMeA]NP[hSer]LPWS[Bta][NMeNle][NMeNle]R[ξC]G-NH2; thioether N-14)		6.00
CCCC[C@H]1C(=O)N2CCC[C@@H]2C(=O)N2CC[C@H]2C(=O)N[C@@H](C(C)C)C(=O)N(C)[C@@H](Cc2ccccc2)C(=O)N[C@@H](Cc2ccc(O)cc2)C(=O)N2CCCC[C@@H]2C(=O)N[C@@H](Cc2c[nH]c3ccccc23)C(=O)N[C@@H](Cc2ccc(O)cc2)C(=O)N[C@@H](CC(C)C)C(=O)N[C@H](C(=O)NCC(N)=O)CSCC(=O)N[C@@H](Cc2cc(F)c(F)c(F)c2)C(=O)N(C)[C@@H](Cc2ccccc2)C(=O)N1C [Example 3221] ({CH2CO}-[Phe(3,4,5-F3)][NMeF][NMeNle][dP][Aze]V[NMeF]Y[dPip]WYLCG-NH2; thioether N-13)	7.00 to 8.00	
CCCC[C@H]1C(=O)N2C[C@H](O)C[C@@H]2C(=O)N[C@@H](CC(=O)O)C(=O)N[C@@H](C(C)C)C(=O)N(C)[C@@H](Cc2ccccc2)C(=O)N[C@@H](CC(=O)O)C(=O)N2C[C@H](O)C[C@@H]2C(=O)N[C@@H](Cc2c[nH]c3ccccc23)C(=O)N[C@@H](Cc2ccc(O)cc2)C(=O)N[C@@H](CC(C)C)C(=O)N[C@H](C(=O)NCC(N)=O)CSCC(=O)N[C@@H](Cc2cc(F)c(F)c(F)c2)C(=O)N(C)[C@@H](Cc2ccccc2)C(=O)N1C [Example 9319] ({CH2CO}-[Phe(3,4,5-F3)][NMeF][NMeNle][d(cisHyp)]DV[NMeF]D[d(cisHyp)]WYLCG-NH2; thioether N-13)	8.00 to 9.00	
CCCC[C@H]1C(=O)N(C)CC(=O)N[C@@H](CC(=O)O)C(=O)N[C@@H](CCc2ccccc2)C(=O)N(C)[C@@H](Cc2ccccc2)C(=O)N[C@@H](Cc2ccc(O)cc2)C(=O)N(C)CC(=O)N[C@@H](Cc2c[nH]c3ccccc23)C(=O)N[C@@H](Cc2ccc(O)cc2)C(=O)N[C@@H](CC(C)C)C(=O)N[C@H](C(=O)NCC(N)=O)CSCC(=O)N[C@@H](Cc2ccccc2)C(=O)N(C)[C@@H](Cc2ccccc2)C(=O)N1C [Example 3226] ({CH2CO}-F[NMeF][NMeNle][Sar]D[hPhe][NMeF]Y[Sar]WYLCG-NH2; thioether N-13)		5.73
CCCC[C@H]1C(=O)N(C)[C@@H](CCCC)C(=O)N[C@@H](CCC(=O)O)C(=O)N[C@H](C(=O)NCC(N)=O)CSCC(=O)N[C@@H](Cc2ccc(O)cc2)C(=O)N2CCCC[C@H]2C(=O)N[C@@H](CC(=O)O)C(=O)N2CCC[C@H]2C(=O)N[C@@H](Cc2cnc[nH]2)C(=O)N[C@@H](CCC(=O)O)C(=O)N2C[C@H](O)C[C@H]2C(=O)N[C@@H](Cc2c[nH]c3ccccc23)C(=O)N[C@@H](CO)C(=O)N[C@@H](Cc2c[nH]c3ccccc23)C(=O)N1C [Example 1256] ({CH2CO}-Y[Pip]DPHE[Hyp]WSW[NMeNle][NMeNle]ECG-NH2; thioether N-14)	8.00 to 9.00	
CCCC[C@H]1C(=O)N2C[C@H](O)C[C@@H]2C(=O)N[C@@H](CC(=O)O)C(=O)N[C@@H](C(C)C)C(=O)N(C)[C@@H](Cc2ccccc2)C(=O)N[C@@H](CCC(=O)O)C(=O)N2CCOC[C@@H]2C(=O)N[C@@H](Cc2c[nH]c3ccccc23)C(=O)N[C@@H](Cc2ccc(O)cc2)C(=O)N[C@@H](CCO)C(=O)N[C@H](C(=O)NCC(N)=O)CSCC(=O)N[C@@H](Cc2cc(F)c(F)c(F)c2)C(=O)N(C)[C@@H](Cc2ccccc2)C(=O)N1C [Example 10156] ({CH2CO}-[Phe(3,4,5-F3)][NMeF][NMeNle][d(cisHyp)]DV[NMeF]E[X1]WY[hSer]CG-NH2; thioether N-13)	8.00 to 9.00	
CCCC[C@H]1C(=O)N(C)[C@@H](CCCC)C(=O)N[C@@H](CCC(=O)O)C(=O)N[C@H](C(=O)NCC(N)=O)CSCC(=O)N[C@@H](Cc2ccc(O)cc2)C(=O)N(C)[C@@H](C)C(=O)N[C@@H](CC(N)=O)C(=O)N2CCC[C@H]2C(=O)N[C@@H](CO)C(=O)N[C@@H](CC(C)C)C(=O)N2C[C@H](O)C[C@H]2C(=O)N[C@@H](Cc2c[nH]c3ccccc23)C(=O)N[C@@H](CCN)C(=O)N[C@@H](Cc2cn(CC(=O)O)c3ccccc23)C(=O)N1C [Example 6136] ({CH2CO}-Y[NMeA]NPSL[Hyp]W[Dab][Trp(1-CH2COOH)][NMeNle][NMeNle]ECG-NH2; thioether N-14)	7.00 to 8.00	
CCCC[C@H]1C(=O)N2CCC[C@@H]2C(=O)N[C@@H](CC(=O)O)C(=O)N[C@@H](C(C)C)C(=O)N(C)[C@@H](Cc2ccccc2)C(=O)N[C@@H](CCC(=O)O)C(=O)N2C[C@H](O)C[C@@H]2C(=O)N[C@@H](Cc2c[nH]c3ccccc23)C(=O)N[C@@H](Cc2ccc(O)cc2)C(=O)N[C@@H](CCOC)C(=O)N[C@H](C(=O)NCC(N)=O)CSCC(=O)N[C@@H](Cc2cc(F)c(F)c(F)c2)C(=O)N(C)[C@@H](Cc2ccccc2)C(=O)N1C [Example 10188] ({CH2CO}-[Phe(3,4,5-F3)][NMeF][NMeNle][dP]DV[NMeF]E[d(cisHyp)]WY[hSer](Me)CG-NH2; thioether N-13)	8.00 to 9.00	
CCCC[C@H]1C(=O)N(C)[C@@H](CCCC)C(=O)N[C@@H](CCCNC(=N)N)C(=O)N[C@H](C(=O)NCC(N)=O)CSCC(=O)N[C@@H](Cc2ccc(O)cc2)C(=O)N(C)[C@@H](C)C(=O)N[C@@H](CC(=O)O)C(=O)N2CCC[C@H]2C(=O)N[C@@H](Cc2cnc[nH]2)C(=O)N[C@@H](CCCCN)C(=O)N2C[C@H](O)C[C@H]2C(=O)N[C@@H](Cc2c[nH]c3ccccc23)C(=O)N[C@@H](CCCCN)C(=O)N[C@@H](Cc2cn(CC(=O)O)c3ccccc23)C(=O)N1C [Example 6224] ({CH2CO}-Y[NMeA]DPHK[Hyp]WK[Trp(1-CH2COOH)][NMeNle][NMeNle]RCG-NH2; thioether N-14)	7.00 to 8.00	
CCCC[C@H]1C(=O)N2CCC[C@@H]2C(=O)N[C@@H](CC(=O)O)C(=O)N[C@@H](C)C(=O)N(C)[C@@H](Cc2ccccc2)C(=O)N[C@@H](Cc2ccc(O)cc2)C(=O)N2CCCC[C@@H]2C(=O)N[C@@H](Cc2c[nH]c3ccccc23)C(=O)N[C@@H](Cc2ccc(O)cc2)C(=O)N[C@@H](CC(C)C)C(=O)N[C@H](C(=O)NCC(N)=O)CSCC(=O)N[C@@H](Cc2ccccc2)C(=O)N(C)[C@@H](Cc2ccccc2)C(=O)N1C [Example 10087] ({CH2CO}-F[NMeF][NMeNle][dP]DA[NMeF]Y[dPip]WYLCG-NH2; thioether N-13)	7.00 to 8.00	
